Laboratory results from patent publication US20240360157A1, “TYK2 INHIBITORS” (BIOGEN MA INC., priority 2021, published 2024).

Columns and labels:
Format in all cases: biochemical
[1] = target: human JAK2 catalytic kinase (JH1) domain (Homo sapiens (Human), UniProt O60674); test: ADP-Glo Kinase Assay, recombinant JAK2 catalytic kinase (JH1) domain; details: recombinant JH1 domain 0.2 nM, 15 μM ATP, JAK3-974 peptide, mean, read-out: JAK2 biochem IC50 (nM) Mean
In short: (§1)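 Kinase 4 nM JAK1 / 0.2 nM JAK2 / 0.3 nM JAK3 / 2 nM TYK2; 50 μM peptide; 100 min. Unused ATP depleted, ADP→ATP, luciferase luminescence. 11-pt 3-fold series from 10 or 1 μM; normalized, 4PL fit → IC50.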

[2] = target: human JAK1 catalytic kinase (JH1) domain (Homo sapiens (Human), UniProt P23458); test: ADP-Glo Kinase Assay, recombinant JAK1 catalytic kinase (JH1) domain; details: recombinant JH1 domain 4 nM, 35 μM ATP, JAK3-342 peptide, mean, read-out: JAK1 biochem IC50 (nM) Mean
In short: as §1

[3] = target: human TYK2 catalytic kinase (JH1) domain (Homo sapiens (Human), UniProt P29597); test: ADP-Glo Kinase Assay, recombinant TYK2 catalytic kinase (JH1) domain; details: recombinant JH1 domain 2 nM, 10 μM ATP, JAK3-974 peptide, mean, read-out: TYK2 biochem IC50 (nM) Mean
In short: as §1

[4] = target: human JAK3 catalytic kinase (JH1) domain (Homo sapiens (Human), UniProt P52333); test: ADP-Glo Kinase Assay, recombinant JAK3 catalytic kinase (JH1) domain; details: recombinant JH1 domain 0.3 nM, 4 μM ATP, JAK3-974 peptide, mean, read-out: JAK3 biochem IC50 (nM) Mean
In short: as §1

Sequence of human TYK2 catalytic kinase (JH1) domain (P29597 897-1176): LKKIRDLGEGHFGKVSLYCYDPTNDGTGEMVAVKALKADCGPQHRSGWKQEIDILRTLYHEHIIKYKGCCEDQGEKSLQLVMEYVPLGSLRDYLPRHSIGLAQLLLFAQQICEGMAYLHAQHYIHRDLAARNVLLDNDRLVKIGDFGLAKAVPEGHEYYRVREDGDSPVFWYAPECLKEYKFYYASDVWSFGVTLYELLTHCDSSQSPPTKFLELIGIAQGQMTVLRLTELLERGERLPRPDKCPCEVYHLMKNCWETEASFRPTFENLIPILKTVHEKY
Sequence of human JAK1 catalytic kinase (JH1) domain (P23458 875-1153): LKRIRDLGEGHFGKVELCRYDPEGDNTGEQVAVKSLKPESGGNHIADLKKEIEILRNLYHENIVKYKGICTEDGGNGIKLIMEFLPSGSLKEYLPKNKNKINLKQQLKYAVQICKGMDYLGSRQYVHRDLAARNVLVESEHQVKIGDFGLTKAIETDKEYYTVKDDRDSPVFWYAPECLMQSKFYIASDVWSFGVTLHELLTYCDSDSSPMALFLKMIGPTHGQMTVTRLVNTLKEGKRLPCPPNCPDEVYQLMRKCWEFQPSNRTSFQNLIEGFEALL
Sequence of human JAK3 catalytic kinase (JH1) domain (P52333 822-1111): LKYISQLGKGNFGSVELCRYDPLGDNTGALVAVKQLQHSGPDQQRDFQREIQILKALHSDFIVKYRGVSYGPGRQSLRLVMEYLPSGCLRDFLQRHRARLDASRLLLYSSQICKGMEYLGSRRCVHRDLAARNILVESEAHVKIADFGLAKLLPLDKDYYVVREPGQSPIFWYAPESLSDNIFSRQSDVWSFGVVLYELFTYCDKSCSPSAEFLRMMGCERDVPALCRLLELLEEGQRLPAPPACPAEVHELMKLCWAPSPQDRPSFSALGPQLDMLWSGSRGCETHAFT
Sequence of human JAK2 catalytic kinase (JH1) domain (O60674 849-1124): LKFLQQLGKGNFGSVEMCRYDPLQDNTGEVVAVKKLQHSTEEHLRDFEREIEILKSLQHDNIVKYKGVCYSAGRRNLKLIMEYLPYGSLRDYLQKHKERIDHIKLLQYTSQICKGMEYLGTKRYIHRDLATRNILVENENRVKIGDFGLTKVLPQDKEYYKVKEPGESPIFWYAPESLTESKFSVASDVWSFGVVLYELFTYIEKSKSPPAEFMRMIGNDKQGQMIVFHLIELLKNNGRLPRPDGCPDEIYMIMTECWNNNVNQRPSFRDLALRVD

## O=C([C@@H]1C[C@H]1F)N1C2CCC1CN(c1ncnn3cc(-c4ccnnc4)cc13)C2 [Example 90, ((1S,2R)-2-fluorocyclopropyl)(3-(6-(pyridazin-4-yl)pyrrolo[2,1-f][1,2,4]triazin-4-yl)-3,8-diazabicyclo[3.2.1]octan-8-yl)methanone]
[1]
  IC50: 3060 nM
[2]
  IC50: 1120 nM
[3]
  IC50: 124 nM
[4]
  IC50: 10000 nM

## Cc1cc(-c2cc3c(N4CC5CCC(C4)N5C(=O)[C@@H]4C[C@H]4F)ncnn3c2)ccn1 [Example 91, ((1S,2R)-2-fluorocyclopropyl)(3-(6-(2-methylpyridin-4-yl)pyrrolo[2,1-f][1,2,4]triazin-4-yl)-3,8-diazabicyclo[3.2.1]octan-8-yl)methanone]
[1]
  IC50: 624 nM
[2]
  IC50: 316 nM
[3]
  IC50: 21.8 nM
[4]
  IC50: 4500 nM

## Cc1ccc(-c2cc3c(N4CC5CCC(C4)N5C(=O)[C@@H]4C[C@H]4F)ncnn3c2)cn1 [Example 92, ((1S,2R)-2-fluorocyclopropyl)(3-(6-(6-methylpyridin-3-yl)pyrrolo[2,1-f][1,2,4]triazin-4-yl)-3,8-diazabicyclo[3.2.1]octan-8-yl)methanone]
[1]
  IC50: 1160 nM
[2]
  IC50: 744 nM
[3]
  IC50: 42.2 nM
[4]
  IC50: 4820 nM

## O=C([C@@H]1C[C@H]1F)N1C2CCC1CN(c1ncnn3cc(-c4ccnc(C(F)F)c4)cc13)C2 [Example 93, (3-(6-(2-(difluoromethyl)pyridin-4-yl)pyrrolo[2,1-f][1,2,4]triazin-4-yl)-3,8-diazabicyclo[3.2.1]octan-8-yl)((1S,2R)-2-fluorocyclopropyl)methanone]
[1]
  IC50: 591 nM
[2]
  IC50: 386 nM
[3]
  IC50: 29.2 nM
[4]
  IC50: 3300 nM

## CNc1cc(-c2cc3c(N4CC5CCC(C4)N5C(=O)[C@@H]4C[C@H]4F)ncnn3c2)ccn1 [Example 94, ((1S,2R)-2-fluorocyclopropyl)(3-(6-(2-(methylamino)pyridin-4-yl)pyrrolo[2,1-f][1,2,4]triazin-4-yl)-3,8-diazabicyclo[3.2.1]octan-8-yl)methanone]
[1]
  IC50: 590 nM
[2]
  IC50: 230 nM
[3]
  IC50: 18.6 nM
[4]
  IC50: 2940 nM

## N#Cc1cc(-c2cc3c(N4CC5CCC(C4)N5C(=O)[C@@H]4C[C@H]4F)ncnn3c2)ccn1 [Example 95, 4-(4-(8-((1S,2R)-2-fluorocyclopropane-1-carbonyl)-3,8-diazabicyclo[3.2.1]octan-3-yl)pyrrolo[2,1-f][1,2,4]triazin-6-yl)picolinonitrile]
[1]
  IC50: 942 nM
[2]
  IC50: 741 nM
[3]
  IC50: 45.5 nM
[4]
  IC50: 7940 nM

## Cn1cc(-c2cc3c(N4CC5CCC(C4)N5C(=O)[C@@H]4C[C@H]4F)ncnn3c2)c(F)n1 [Example 96, (3-(6-(3-fluoro-1-methyl-1H-pyrazol-4-yl)pyrrolo[2,1-f][1,2,4]triazin-4-yl)-3,8-diazabicyclo[3.2.1]octan-8-yl)((1S,2R)-2-fluorocyclopropyl)methanone]
[1]
  IC50: 422 nM
[2]
  IC50: 718 nM
[3]
  IC50: 13.7 nM
[4]
  IC50: 3270 nM

## Cn1ncc(-c2cc3c(N4CC5CCC(C4)N5C(=O)[C@@H]4C[C@H]4F)ncnn3c2)c1F [Example 97, (3-(6-(5-fluoro-1-methyl-1H-pyrazol-4-yl)pyrrolo[2,1-f][1,2,4]triazin-4-yl)-3,8-diazabicyclo[3.2.1]octan-8-yl)((1S,2R)-2-fluorocyclopropyl)methanone]
[1]
  IC50: 1380 nM
[2]
  IC50: 1320 nM
[3]
  IC50: 76.8 nM
[4]
  IC50: 4040 nM

## COc1nn(C)cc1-c1cc2c(N3CC4CCC(C3)N4C(=O)[C@@H]3C[C@H]3F)ncnn2c1 [Example 98, ((1S,2R)-2-fluorocyclopropyl)(3-(6-(3-methoxy-1-methyl-1H-pyrazol-4-yl)pyrrolo[2,1-f][1,2,4]triazin-4-yl)-3,8-diazabicyclo[3.2.1]octan-8-yl)methanone]
[1]
  IC50: 216 nM
[2]
  IC50: 672 nM
[3]
  IC50: 9.8 nM
[4]
  IC50: 1640 nM

## CNc1cc(-c2cc3c(N4CC5CCC(C4)N5C(=O)[C@@H]4C[C@H]4F)ccnn3c2)ccn1 [Example 99, ((1S,2R)-2-fluorocyclopropyl)(3-(6-(2-(methylamino)pyridin-4-yl)pyrrolo[1,2-b]pyridazin-4-yl)-3,8-diazabicyclo[3.2.1]octan-8-yl)methanone]
[1]
  IC50: 18 nM
[2]
  IC50: 10 nM
[3]
  IC50: 0.7 nM
[4]
  IC50: 211 nM

## Cc1cc(-c2cc3c(N4CC5CCC(C4)N5C(=O)[C@@H]4C[C@H]4F)ccnn3c2)ccn1 [Example 100, ((1S,2R)-2-fluorocyclopropyl)(3-(6-(2-methylpyridin-4-yl)pyrrolo[1,2-b]pyridazin-4-yl)-3,8-diazabicyclo[3.2.1]octan-8-yl)methanone]
[1]
  IC50: 43 nM
[2]
  IC50: 26 nM
[3]
  IC50: 2.5 nM
[4]
  IC50: 756 nM

## O=C([C@@H]1C[C@H]1F)N1C2CCC1CN(c1ccnn3cc(-c4ccnc(C(F)F)c4)cc13)C2 [Example 101, (3-(6-(2-(difluoromethyl)pyridin-4-yl)pyrrolo[1,2-b]pyridazin-4-yl)-3,8-diazabicyclo[3.2.1]octan-8-yl)((1S,2R)-2-fluorocyclopropyl)methanone]
[1]
  IC50: 27 nM
[2]
  IC50: 22 nM
[3]
  IC50: 1.4 nM
[4]
  IC50: 541 nM

## N#Cc1ccc(-c2cc3c(N4CC5CCC(C4)N5C(=O)[C@@H]4C[C@H]4F)ccnn3c2)cn1 [Example 103, 5-(4-(8-((1S,2R)-2-fluorocyclopropane-1-carbonyl)-3,8-diazabicyclo[3.2.1]octan-3-yl)pyrrolo[1,2-b]pyridazin-6-yl)picolinonitrile]
[1]
  IC50: 60 nM
[2]
  IC50: 77 nM
[3]
  IC50: 5.2 nM
[4]
  IC50: 913 nM

## N#Cc1cc(-c2cc3c(N4CC5CCC(C4)N5C(=O)[C@@H]4C[C@H]4F)ccnn3c2)ccn1 [Example 104, 4-(4-(8-((1S,2R)-2-fluorocyclopropane-1-carbonyl)-3,8-diazabicyclo[3.2.1]octan-3-yl)pyrrolo[1,2-b]pyridazin-6-yl)picolinonitrile]
[1]
  IC50: 47 nM
[2]
  IC50: 46 nM
[3]
  IC50: 3.4 nM
[4]
  IC50: 886 nM

## COc1cc(-c2cc3c(N4CC5CCC(C4)N5C(=O)[C@@H]4C[C@H]4F)ccnn3c2)ncn1 [Example 105, ((1S,2R)-2-fluorocyclopropyl)(3-(6-(6-methoxypyrimidin-4-yl)pyrrolo[1,2-b]pyridazin-4-yl)-3,8-diazabicyclo[3.2.1]octan-8-yl)methanone]
[1]
  IC50: 190 nM
[2]
  IC50: 356 nM
[3]
  IC50: 28.6 nM
[4]
  IC50: 6900 nM

## Cc1cc(-c2cc3c(N4CC5CCC(C4)N5C(=O)[C@@H]4C[C@H]4F)ccnn3c2)ncn1 [Example 106, ((1S,2R)-2-fluorocyclopropyl)(3-(6-(6-methylpyrimidin-4-yl)pyrrolo[1,2-b]pyridazin-4-yl)-3,8-diazabicyclo[3.2.1]octan-8-yl)methanone]
[1]
  IC50: 178 nM
[2]
  IC50: 448 nM
[3]
  IC50: 13.7 nM
[4]
  IC50: 3200 nM

## COc1ncnc(-c2cc3c(N4CC5CCC(C4)N5C(=O)[C@@H]4C[C@H]4F)ccnn3c2)c1F [Example 107, (3-(6-(5-fluoro-6-methoxypyrimidin-4-yl)pyrrolo[1,2-b]pyridazin-4-yl)-3,8-diazabicyclo[3.2.1]octan-8-yl)((1S,2R)-2-fluorocyclopropyl)methanone]
[1]
  IC50: 1680 nM
[2]
  IC50: 862 nM
[3]
  IC50: 92.3 nM
[4]
  IC50: 10000 nM

## O=C([C@@H]1C[C@H]1F)N1C2CCC1CN(c1ccnn3cc(-c4ncc(F)cn4)cc13)C2 [Example 108, ((1S,2R)-2-fluorocyclopropyl)(3-(6-(5-fluoropyrimidin-2-yl)pyrrolo[1,2-b]pyridazin-4-yl)-3,8-diazabicyclo[3.2.1]octan-8-yl)methanone]
[1]
  IC50: 1050 nM
[2]
  IC50: 909 nM
[3]
  IC50: 48 nM
[4]
  IC50: 3920 nM

## O=C([C@@H]1C[C@H]1F)N1C2CCC1CN(c1ccnn3cc(-c4ccnnc4)cc13)C2 [Example 109, ((1S,2R)-2-fluorocyclopropyl)(3-(6-(pyridazin-4-yl)pyrrolo[1,2-b]pyridazin-4-yl)-3,8-diazabicyclo[3.2.1]octan-8-yl)methanone]
[1]
  IC50: 45 nM
[2]
  IC50: 38 nM
[3]
  IC50: 3.2 nM
[4]
  IC50: 847 nM

## O=C([C@@H]1C[C@H]1F)N1C2CCC1CN(c1ncnn3cc(-c4ccc(=O)n(C(F)F)c4)cc13)C2 [Example 110, 1-(difluoromethyl)-5-(4-(8-((1S,2R)-2-fluorocyclopropane-1-carbonyl)-3,8-diazabicyclo[3.2.1]octan-3-yl)pyrrolo[2,1-f][1,2,4]triazin-6-yl)pyridin-2(1H)-one]
[1]
  IC50: 812 nM
[2]
  IC50: 758 nM
[3]
  IC50: 56.5 nM
[4]
  IC50: 3960 nM

## O=C([C@@H]1C[C@H]1F)N1C2CCC1CN(c1ccnn3cc(-c4ccnc(OC(F)F)c4)cc13)C2 [Example 111, (3-(6-(2-(difluoromethoxy)pyridin-4-yl)pyrrolo[1,2-b]pyridazin-4-yl)-3,8-diazabicyclo[3.2.1]octan-8-yl)((1S,2R)-2-fluorocyclopropyl)methanone]
[1]
  IC50: 57 nM
[2]
  IC50: 62 nM
[3]
  IC50: 3.6 nM
[4]
  IC50: 981 nM

## O=C([C@@H]1C[C@H]1F)N1C2CCC1CN(c1ccnn3cc(-c4ccnc(C(F)(F)F)c4)cc13)C2 [Example 112, ((1S,2R)-2-fluorocyclopropyl)(3-(6-(2-(trifluoromethyl)pyridin-4-yl)pyrrolo[1,2-b]pyridazin-4-yl)-3,8-diazabicyclo[3.2.1]octan-8-yl)methanone]
[1]
  IC50: 38 nM
[2]
  IC50: 37 nM
[3]
  IC50: 2.9 nM
[4]
  IC50: 835 nM
